# In PubChem BioAssay (NCI):
#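 Step 1: Grow cells in 96-well plates. Step 2: Expose to compound for 48 hours at 5 concentrations. Step 3: Interpolate endpoints linearly; if unreached, use highest concentration. GI50 is the concentration that inhibits growth by half. TGI: concentration producing complete growth inhibition.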
# Columns and labels:
# Assay in all cases: NCI tumour cell line growth inhibition, 48 h
# MCF7 breast = tested on: MCF7 breast
# SR leukemia = tested on: SR leukemia
# SNB-19 CNS = tested on: SNB-19 CNS
# HL-60(TB) leukemia = tested on: HL-60(TB) leukemia
# OVCAR-8 ovarian = tested on: OVCAR-8 ovarian
# BT-549 breast = tested on: BT-549 breast
# SK-MEL-2 melanoma = tested on: SK-MEL-2 melanoma
# SNB-75 CNS = tested on: SNB-75 CNS
# NCI-H460 lung = tested on: NCI-H460 lung
# HT29 colon = tested on: HT29 colon
Compound,GI50 (MCF7 breast) [µM],TGI (MCF7 breast) [µM],GI50 (SR leukemia) [µM],TGI (SR leukemia) [µM],GI50 (SNB-19 CNS) [µM],TGI (SNB-19 CNS) [µM],GI50 (HL-60(TB) leukemia) [µM],TGI (HL-60(TB) leukemia) [µM],GI50 (OVCAR-8 ovarian) [µM],TGI (OVCAR-8 ovarian) [µM],GI50 (BT-549 breast) [µM],TGI (BT-549 breast) [µM],GI50 (SK-MEL-2 melanoma) [µM],TGI (SK-MEL-2 melanoma) [µM],GI50 (SNB-75 CNS) [µM],TGI (SNB-75 CNS) [µM],GI50 (NCI-H460 lung) [µM],TGI (NCI-H460 lung) [µM],TGI (HT29 colon) [µM],GI50 (HT29 colon) [µM]
O=C(/C=C/c1cccc(Cl)c1)c1ccc(Cl)cc1Cl,3.49,> 50,0.005,4.31,7.42,17.1,25.3,> 50,12,36.9,8.94,20.7,11.8,33,9.5,30.1,13.2,> 50,,
C=C1C(C)C2C(Cc3ccccc3)NC(=O)C23C(OC(C)=O)/C=C/C(C)(O)CC(C)C/C=C/C3C1O (centres undefined),,> 94.5,,> 59.9,,20.7,,36,,> 100,,> 47.3,,76.5,,0.0862,,> 95.2,> 100,
COc1ccc(C(O)c2cc3c(N)c(C(=O)Nc4cccc(Br)c4)sc3nc2C)cc1 (centres undefined),0.125,> 58.4,0.0979,> 32.7,0.159,> 100,0.085,0.242,0.139,> 55.6,0.17,> 23.2,0.572,> 21.9,0.0693,,0.109,3.61,,0.109
COc1ccc([C@H]2O[C@@H](CO)C[C@]2(O)c2ccc(OC)cc2)cc1,> 100,> 100,49.8,> 100,> 100,> 100,39.3,> 100,> 100,> 100,> 100,> 100,,,> 100,> 100,> 100,> 100,> 100,> 100
O=C(/C=C/c1ccco1)Nc1ncc(Cc2ccc(F)cc2)s1,0.0612,> 100,0.0356,> 68,0.112,> 100,0.0533,0.185,0.152,> 100,0.368,> 25.3,0.115,> 100,0.0547,0.706,0.0397,> 100,> 100,0.0366
Cn1ccnc1C(=O)/C=C/c1ccc(C(=O)Nc2nc3ccccc3[nH]2)cc1,0.9,> 25,0.956,> 25,9.75,> 25,7.87,> 25,8.99,> 25,1.73,> 25,> 25,> 25,1,15.9,1.6,> 25,> 25,1.01
COC(=O)CCC1=C(C)c2cc3[n-]c(cc4nc(cc5[n-]c(cc1n2)c(CCC(=O)OC)c5C)C=C4C)cc3C.[Cd+2],2.66,11.9,3.16,8.91,25.6,> 100,,,9.95,75.4,0.925,2.39,5.37,19.1,6.62,33.8,0.868,3.2,26.3,6.74
O=c1[nH]c(-c2ccc(C(F)(F)F)cc2)nc2c1CSCC2,> 100,> 100,> 100,> 100,47.3,> 100,> 100,> 100,26.3,99,> 94.3,> 100,35.6,> 93.2,21.2,56.2,> 100,> 100,> 100,> 76.8
c1ccc(-c2nc(N3CCNCC3)c3nc(-c4ccccc4)oc3n2)cc1,1.7,3.58,0.298,1.2,1.74,3.34,1.89,4.08,,,1.67,3.24,1.91,3.74,1.26,2.52,1.73,3.38,3.85,1.84
CC(=O)OC1CCC2(C)C(=CC(C3C=C4CC(OC(C)=O)CCC4(C)C4=C3C3CC5OC6(CCC(C)CO6)C(C)C5C3(C)CC4)C3=C2CCC2(C)C3CC3OC4(CCC(C)CO4)C(C)C32)C1 (centres undefined),,21.9,,28.3,,30.4,,,,23.1,,29.7,,33.9,,29.9,,,27.2,
FC(F)(F)c1ccc(-c2cnc(Br)nc2NC2CCCCCC2)cc1,19.7,> 100,30.5,> 100,> 100,> 100,31.4,> 100,> 100,> 100,72.9,> 100,,,> 100,> 100,82.2,> 100,> 100,71.4
COc1ccc(NC(=O)c2cc(OC)c(OC)c(OC)c2)cc1O,2.58,> 100,0.313,> 100,4.73,> 100,1.08,21.6,4.98,> 100,21.7,> 100,2.58,> 100,1.56,> 100,3,> 100,11.6,3.21
COc1ccc(/C=C\c2cc(OC)c(OC)c(OC)c2)c(NS(=O)(=O)c2ccc(C)cc2)c1O,0.0333,> 39.2,0.031,> 51.5,0.0549,> 100,0.0338,2.06,0.0498,> 100,0.035,3.04,1.45,> 100,0.0304,> 100,0.0351,> 37.9,> 45.7,0.813
Fc1ccc(-c2ncn(C3CCNCC3)c2-c2ccnc(Oc3cccc(F)c3)n2)cc1,7.38,> 20.4,,,> 25,> 25,> 16.6,> 25,> 25,> 25,> 24,> 25,> 25,> 25,14.8,> 25,7.46,> 21.8,8.6,4.5
COc1cc(C2C(C#N)=C(N)OC3=C2C(=O)c2ccccc2C3=O)cc(OC)c1OC (centres undefined),0.422,16.1,0.337,> 100,11.2,> 100,2.28,6.77,1.12,24.1,1.43,18.5,0.998,19.2,0.293,25.1,0.532,14.5,41.3,3.45
COc1ccc2c3c(c(OCCCN(C)C)nc2c1)-c1ccc(Cl)cc1C3=O,1.27,13,,,8.81,28.2,18.9,64.2,5.98,34.6,14.2,28.3,19.6,40.3,1.55,18.3,2.26,10.2,17.6,2.01
N#Cc1nc(-c2ccccc2)oc1S(=O)(=O)N1CCOCC1,2.74,13.1,,,28,> 100,2.08,4.79,3.55,16.2,6.67,19.6,12.7,29.8,11.2,23.7,17.3,37.2,25.4,4.82
CCNCCNc1cc(-c2ccc(F)cc2)c(C#N)c2nc3ccccc3n12,3.31,13.5,,,4.94,17.8,2.09,4.36,4.52,15.8,4.53,15.5,14.2,28.3,1.81,4.39,3.36,10.8,11,3.06
COc1ccccc1-n1c(SCc2cc(OC)c(OC)c(OC)c2)nc2ccc(Cl)cc2c1=O,0.915,> 100,0.538,> 100,,,2.99,18.7,8.86,> 100,3.95,> 100,4.88,> 100,2.41,32.7,3.34,> 100,> 100,2.91
CC(C)(C)CC(C)(C)c1ccc(OCCOCCSC(=N)N)cc1,1.51,3.22,,,2.17,5.58,1.79,3.58,1.86,3.56,3.84,16,2.02,3.49,1.37,3.85,1.75,3.29,3.42,1.78
